Our source for the AC50 values is ChEMBL document CHEMBL5291721, “A preclinical secondary pharmacology resource illuminates target-adverse drug reaction associations of marketed drugs” (Nat Commun, 2023).

In one assay the target is T1, Androgen receptor (Rattus norvegicus, UniProt P15207).
T1 sequence (P15207 whole entry): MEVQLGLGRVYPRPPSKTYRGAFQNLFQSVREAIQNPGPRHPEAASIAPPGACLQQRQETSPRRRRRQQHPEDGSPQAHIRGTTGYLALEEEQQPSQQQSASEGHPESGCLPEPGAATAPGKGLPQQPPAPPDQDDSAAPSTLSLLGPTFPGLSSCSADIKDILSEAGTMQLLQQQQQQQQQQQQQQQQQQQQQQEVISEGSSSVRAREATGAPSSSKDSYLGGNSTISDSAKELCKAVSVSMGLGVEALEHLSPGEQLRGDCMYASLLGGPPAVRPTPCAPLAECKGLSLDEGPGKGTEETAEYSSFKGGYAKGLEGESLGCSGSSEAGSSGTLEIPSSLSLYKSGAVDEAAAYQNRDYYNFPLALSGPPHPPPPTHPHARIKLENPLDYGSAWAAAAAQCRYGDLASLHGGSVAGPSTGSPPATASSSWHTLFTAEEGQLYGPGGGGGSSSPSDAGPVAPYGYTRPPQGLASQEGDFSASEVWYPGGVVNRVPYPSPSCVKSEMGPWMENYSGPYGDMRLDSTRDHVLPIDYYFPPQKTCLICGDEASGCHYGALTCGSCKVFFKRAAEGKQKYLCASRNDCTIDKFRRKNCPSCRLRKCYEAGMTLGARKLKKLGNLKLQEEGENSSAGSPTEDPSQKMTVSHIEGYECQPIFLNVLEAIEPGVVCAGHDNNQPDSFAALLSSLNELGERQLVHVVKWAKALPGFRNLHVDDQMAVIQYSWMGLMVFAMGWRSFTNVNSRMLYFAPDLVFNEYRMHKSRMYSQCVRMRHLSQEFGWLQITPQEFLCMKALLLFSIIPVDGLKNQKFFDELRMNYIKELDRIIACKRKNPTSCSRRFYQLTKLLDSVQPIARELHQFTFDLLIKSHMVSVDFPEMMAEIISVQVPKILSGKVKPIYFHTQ
Format: functional.

For assay [1], the target named is Beta-2 adrenergic receptor (Homo sapiens, UniProt P07550). In kind it is functional, cell-based.
For assay [2], the target named is T2, Gamma-aminobutyric acid receptor subunit alpha-1/alpha-2/beta-2/gamma-2 (Homo sapiens, UniProt P14867+P18507+P47869+P47870). In kind it is functional, cell-based.
For assay [3], the target named is T2, Gamma-aminobutyric acid receptor subunit alpha-1/alpha-2/beta-2/gamma-2. Format: functional, cell-based. The source holds these as a separate data set.
Assay [4] addresses T3, Alpha-1A adrenergic receptor (Homo sapiens, UniProt P35348).
T3 sequence (P35348 whole entry): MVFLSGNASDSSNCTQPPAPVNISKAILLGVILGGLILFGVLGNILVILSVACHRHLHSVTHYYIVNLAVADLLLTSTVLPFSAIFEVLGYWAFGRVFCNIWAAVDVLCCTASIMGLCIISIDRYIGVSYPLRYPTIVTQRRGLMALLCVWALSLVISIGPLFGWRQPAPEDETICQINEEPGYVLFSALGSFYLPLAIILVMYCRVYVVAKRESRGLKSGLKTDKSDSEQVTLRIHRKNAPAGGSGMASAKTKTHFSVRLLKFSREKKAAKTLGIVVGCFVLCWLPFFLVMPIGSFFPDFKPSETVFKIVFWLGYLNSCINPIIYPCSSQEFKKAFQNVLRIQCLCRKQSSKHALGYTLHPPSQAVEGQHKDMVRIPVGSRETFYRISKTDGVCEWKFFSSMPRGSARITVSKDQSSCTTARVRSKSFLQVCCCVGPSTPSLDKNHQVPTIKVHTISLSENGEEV

Assay [5] addresses T4, Peroxisome proliferator-activated receptor gamma (Homo sapiens, UniProt P37231).
T4 sequence (P37231 whole entry): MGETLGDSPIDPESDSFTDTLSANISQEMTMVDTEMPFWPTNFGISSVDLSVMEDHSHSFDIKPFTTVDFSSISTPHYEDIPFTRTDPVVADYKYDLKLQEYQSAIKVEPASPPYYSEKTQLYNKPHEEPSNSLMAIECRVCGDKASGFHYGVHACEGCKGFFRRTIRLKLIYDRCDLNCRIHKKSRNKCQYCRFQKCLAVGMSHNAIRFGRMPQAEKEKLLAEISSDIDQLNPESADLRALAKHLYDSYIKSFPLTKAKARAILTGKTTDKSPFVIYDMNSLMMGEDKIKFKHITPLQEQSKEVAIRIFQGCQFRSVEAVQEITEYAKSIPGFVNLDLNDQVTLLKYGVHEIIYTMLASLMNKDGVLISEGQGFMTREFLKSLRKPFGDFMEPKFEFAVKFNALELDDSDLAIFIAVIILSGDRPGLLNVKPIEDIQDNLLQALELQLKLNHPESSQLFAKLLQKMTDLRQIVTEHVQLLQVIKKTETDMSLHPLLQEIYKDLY
Format: functional.

A further assay concerns the target Histamine H1 receptor (Homo sapiens, UniProt P35367). In kind it is functional, cell-based.
The target in assay [6] is Beta-3 adrenergic receptor (Homo sapiens, UniProt P13945).
The next assay concerns the target D(1A) dopamine receptor (Homo sapiens, UniProt P21728).
Also: assay procedure not described here.

T2 sequence (P14867 whole entry): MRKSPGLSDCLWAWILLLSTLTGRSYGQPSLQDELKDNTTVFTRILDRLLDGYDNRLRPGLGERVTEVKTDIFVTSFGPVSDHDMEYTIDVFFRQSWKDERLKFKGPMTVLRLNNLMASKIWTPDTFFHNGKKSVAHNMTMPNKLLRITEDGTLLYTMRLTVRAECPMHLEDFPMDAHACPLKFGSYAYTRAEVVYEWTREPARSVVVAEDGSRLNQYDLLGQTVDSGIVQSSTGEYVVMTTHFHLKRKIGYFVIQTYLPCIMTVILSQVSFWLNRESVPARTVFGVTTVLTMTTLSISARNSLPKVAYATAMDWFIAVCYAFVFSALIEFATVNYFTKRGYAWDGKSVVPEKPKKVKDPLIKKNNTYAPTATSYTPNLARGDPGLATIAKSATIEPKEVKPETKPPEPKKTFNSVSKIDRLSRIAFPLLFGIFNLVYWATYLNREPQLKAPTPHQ
T2 sequence (P47870 whole entry): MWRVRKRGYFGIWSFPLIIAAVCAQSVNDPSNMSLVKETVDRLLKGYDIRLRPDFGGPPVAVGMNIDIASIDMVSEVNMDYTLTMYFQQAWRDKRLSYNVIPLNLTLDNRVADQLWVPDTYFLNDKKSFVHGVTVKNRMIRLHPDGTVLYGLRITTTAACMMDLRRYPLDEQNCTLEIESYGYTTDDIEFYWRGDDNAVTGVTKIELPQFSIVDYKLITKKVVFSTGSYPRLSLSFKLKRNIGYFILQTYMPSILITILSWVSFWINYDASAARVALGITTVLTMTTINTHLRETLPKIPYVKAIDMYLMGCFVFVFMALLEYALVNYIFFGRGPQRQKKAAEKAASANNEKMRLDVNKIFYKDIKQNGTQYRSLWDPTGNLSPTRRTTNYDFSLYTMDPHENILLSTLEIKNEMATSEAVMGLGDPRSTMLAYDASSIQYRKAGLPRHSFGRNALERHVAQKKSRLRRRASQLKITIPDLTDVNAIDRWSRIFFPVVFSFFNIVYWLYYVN
T2 sequence (P18507 whole entry): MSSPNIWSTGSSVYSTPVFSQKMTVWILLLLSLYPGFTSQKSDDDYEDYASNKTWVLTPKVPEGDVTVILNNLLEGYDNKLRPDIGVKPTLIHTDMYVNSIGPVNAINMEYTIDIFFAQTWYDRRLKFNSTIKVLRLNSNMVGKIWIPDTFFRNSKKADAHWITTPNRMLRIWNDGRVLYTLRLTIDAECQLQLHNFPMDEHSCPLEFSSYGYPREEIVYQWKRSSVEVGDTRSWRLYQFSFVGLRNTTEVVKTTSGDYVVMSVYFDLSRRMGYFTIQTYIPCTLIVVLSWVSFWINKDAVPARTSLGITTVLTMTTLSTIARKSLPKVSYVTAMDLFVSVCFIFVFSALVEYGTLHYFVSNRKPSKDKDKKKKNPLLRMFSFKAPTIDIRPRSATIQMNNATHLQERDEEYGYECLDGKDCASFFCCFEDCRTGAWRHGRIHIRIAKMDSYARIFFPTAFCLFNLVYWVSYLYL
T2 sequence (P47869 whole entry): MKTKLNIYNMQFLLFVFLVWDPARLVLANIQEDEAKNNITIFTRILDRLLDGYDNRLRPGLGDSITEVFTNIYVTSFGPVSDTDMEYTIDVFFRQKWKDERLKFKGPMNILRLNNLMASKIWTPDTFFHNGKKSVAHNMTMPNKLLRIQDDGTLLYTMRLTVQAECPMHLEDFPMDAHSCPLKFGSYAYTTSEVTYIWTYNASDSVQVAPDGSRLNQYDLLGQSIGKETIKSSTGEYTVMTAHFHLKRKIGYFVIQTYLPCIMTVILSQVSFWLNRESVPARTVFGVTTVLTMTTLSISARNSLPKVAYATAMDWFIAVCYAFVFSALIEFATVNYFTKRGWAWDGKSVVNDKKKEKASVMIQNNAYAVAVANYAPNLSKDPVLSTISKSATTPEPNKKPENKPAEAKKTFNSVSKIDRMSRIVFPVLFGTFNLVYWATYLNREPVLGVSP
Histamine H1 receptor, sequence (P35367 whole entry): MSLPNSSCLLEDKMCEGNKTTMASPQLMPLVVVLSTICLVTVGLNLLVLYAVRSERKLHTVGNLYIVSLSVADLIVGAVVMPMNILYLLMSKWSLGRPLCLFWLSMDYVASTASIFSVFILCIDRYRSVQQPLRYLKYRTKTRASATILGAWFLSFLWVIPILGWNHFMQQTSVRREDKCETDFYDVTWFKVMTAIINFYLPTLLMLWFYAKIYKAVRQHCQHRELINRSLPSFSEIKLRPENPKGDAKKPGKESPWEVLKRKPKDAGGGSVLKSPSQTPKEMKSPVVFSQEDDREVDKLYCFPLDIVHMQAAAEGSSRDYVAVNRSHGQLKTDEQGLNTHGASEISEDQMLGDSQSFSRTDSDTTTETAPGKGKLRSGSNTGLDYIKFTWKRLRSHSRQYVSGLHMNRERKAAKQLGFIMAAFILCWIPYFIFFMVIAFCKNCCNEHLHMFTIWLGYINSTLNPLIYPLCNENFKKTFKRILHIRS
D(1A) dopamine receptor, sequence (P21728 whole entry): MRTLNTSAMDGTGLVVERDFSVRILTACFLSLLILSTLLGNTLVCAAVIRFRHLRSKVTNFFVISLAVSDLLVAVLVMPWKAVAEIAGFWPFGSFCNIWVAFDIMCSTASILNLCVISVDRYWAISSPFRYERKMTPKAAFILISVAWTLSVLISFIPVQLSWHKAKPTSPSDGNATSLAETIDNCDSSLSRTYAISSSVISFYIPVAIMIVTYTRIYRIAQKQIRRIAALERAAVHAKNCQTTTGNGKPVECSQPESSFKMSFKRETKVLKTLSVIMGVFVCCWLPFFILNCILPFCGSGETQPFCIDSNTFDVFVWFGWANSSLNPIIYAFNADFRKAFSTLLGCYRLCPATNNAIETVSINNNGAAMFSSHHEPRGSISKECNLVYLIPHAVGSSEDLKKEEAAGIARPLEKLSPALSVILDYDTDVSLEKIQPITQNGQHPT
Beta-2 adrenergic receptor, sequence (P07550 whole entry): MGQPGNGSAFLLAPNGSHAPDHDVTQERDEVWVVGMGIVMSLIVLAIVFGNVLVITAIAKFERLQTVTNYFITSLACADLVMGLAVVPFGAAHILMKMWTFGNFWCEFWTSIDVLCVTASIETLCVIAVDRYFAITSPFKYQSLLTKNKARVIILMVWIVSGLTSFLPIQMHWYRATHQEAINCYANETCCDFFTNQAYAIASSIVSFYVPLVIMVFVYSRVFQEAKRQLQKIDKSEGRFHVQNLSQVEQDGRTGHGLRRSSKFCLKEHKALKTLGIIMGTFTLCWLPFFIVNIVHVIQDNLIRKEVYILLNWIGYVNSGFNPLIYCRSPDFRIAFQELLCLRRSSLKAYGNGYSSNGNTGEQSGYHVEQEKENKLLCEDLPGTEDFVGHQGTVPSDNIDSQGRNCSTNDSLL
Beta-3 adrenergic receptor, sequence (P13945 whole entry): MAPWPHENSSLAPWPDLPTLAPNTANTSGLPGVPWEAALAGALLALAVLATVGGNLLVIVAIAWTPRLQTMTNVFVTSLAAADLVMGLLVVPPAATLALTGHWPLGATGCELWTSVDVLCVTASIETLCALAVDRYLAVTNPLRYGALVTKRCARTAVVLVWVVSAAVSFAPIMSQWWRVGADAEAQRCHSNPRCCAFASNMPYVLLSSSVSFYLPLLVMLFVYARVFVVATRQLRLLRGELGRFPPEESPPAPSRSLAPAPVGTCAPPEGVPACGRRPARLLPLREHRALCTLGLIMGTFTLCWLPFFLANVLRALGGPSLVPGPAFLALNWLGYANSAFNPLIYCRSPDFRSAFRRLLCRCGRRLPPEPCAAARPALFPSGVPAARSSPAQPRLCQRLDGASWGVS

With `O=C(CCCN1CCC(n2c(O)nc3ccccc32)CC1)c1ccc(F)cc1` [BENPERIDOL], the AC50 (commonly the concentration giving half of the maximal activity seen) on Androgen receptor was 7.1 µM; in assay [1], above 30 µM; in assay [2] it was above 30 µM; in assay [3] it was 20 µM.

For `CCN(CC)C(=O)C1CN2CCc3cc(OC)c(OC)cc3C2CC1OC(C)=O` (centres undefined) [BENZQUINAMIDE], the concentration at half-maximal activity (AC50) on Androgen receptor was above 30 µM; in [4], above 10 µM; in [1], above 30 µM; in assay [5] it was above 30 µM; on Histamine H1 receptor, above 30 µM; in assay [2], above 30 µM. Moreover, the AC50 in assay [3] was above 30 µM.

On to `CCCCC1(CC)C(=O)NC(=O)NC1=O` [BUTETHAL], for which the AC50 (at Androgen receptor; in assay [1]; in assay [5]; in assay [2]; in assay [3]) was above 30 µM each time.

Turning to `CCCC(C)(COC(N)=O)COC(=O)NC(C)C` (centres undefined) [CARISOPRODOL], the AC50 was above 30 µM in assay [6]; above 10 µM at D(1A) dopamine receptor; 13.3 µM in assay [4]; above 30 µM in assay [1]; above 30 µM at Histamine H1 receptor.

In the case of `CCN(CC)CCOC(=O)c1ccc(N)cc1Cl` [CHLOROPROCAINE], the AC50 in [1], in assay [5], in assay [2] and in assay [3] was above 30 µM throughout.

On to `COCCOC(=O)C1=C(C)NC(C)=C(C(=O)OC/C=C/c2ccccc2)C1c1cccc([N+](=O)[O-])c1` (centres undefined) [CILNIDIPINE], for which the AC50 (in [1]; on Histamine H1 receptor; in assay [2]; in [3]) was above 30 µM each time.

In the case of `N[C@H](Cc1cc(I)c(Oc2cc(I)c(O)c(I)c2)c(I)c1)C(=O)O` [DEXTROTHYROXINE], the AC50 in [6] was above 30 µM; at D(1A) dopamine receptor, above 10 µM; in [4], above 10 µM; in [1], above 30 µM.

For `CC(=O)OCC(CCn1cnc2cnc(N)nc21)COC(C)=O` [FAMCICLOVIR], the AC50 in [6] is above 30 µM; at D(1A) dopamine receptor, above 10 µM; in [4], 11.6 µM; in assay [1], above 30 µM.

On to `O=C(O)c1ccccc1OP(=O)(O)O` [FOSFOSAL], for which the AC50 in assay [1], in assay [5], in assay [2] and in assay [3] was above 30 µM each time.

Turning to `COC1=C(OC)C(=O)C(CCCCCCCCCCO)=C(C)C1=O` [IDEBENONE], the half-maximal activity concentration (AC50) in assay [6] was above 30 µM; on D(1A) dopamine receptor, above 10 µM; in [4], above 10 µM; in assay [1], above 30 µM.

As for `CC1(C)C(/C=C/C=C/C=C/C=C2\N(CCCCS(=O)(=O)O)c3ccc4ccccc4c3C2(C)C)=[N+](CCCCS(=O)(=O)[O-])c2ccc3ccccc3c21` [INDOCYANINE GREEN ACID FORM], the half-maximal activity concentration (AC50) (at Androgen receptor; in [1]; at Histamine H1 receptor; in assay [3]) was above 30 µM throughout.

For the compound `CCCC[C@H](C)C[C@H](O)/C=C/[C@H]1[C@H](O)CC(=O)[C@@H]1CCCC/C=C/C(=O)O` [LIMAPROST], the half-maximal activity concentration (AC50) (at Androgen receptor; in assay [1]; in assay [5]; on Histamine H1 receptor; in assay [2]; in assay [3]) was above 30 µM each time.

For the compound `Cc1ccc(NC(=O)C2(c3ccc4c(c3)OC(F)(F)O4)CC2)nc1-c1cccc(C(=O)O)c1` [LUMACAFTOR], the AC50 (on Androgen receptor; in assay [1]; in [5]; at Histamine H1 receptor; in [2]) was above 30 µM in each case.

On to `CCOC(=O)Nc1ccc2c(c1)N(C(=O)CCN1CCOCC1)c1ccccc1S2` [MORICIZINE], for which the AC50 (at Androgen receptor; in assay [1]; in assay [5]; on Histamine H1 receptor; in assay [2]) was above 30 µM throughout.

Consider `O=C1CN=C(c2ccccc2)c2cc(Cl)ccc2N1` [NORDAZEPAM], for which the AC50 in [6] was above 30 µM; on D(1A) dopamine receptor, above 10 µM; in assay [4], above 10 µM; in [1] it was above 30 µM.

Take `CC(CCc1ccccc1)NC(C)C(O)c1ccc(O)cc1` (centres undefined) [NYLIDRIN]: the results for the half-maximal activity concentration (AC50) (in [6]; at D(1A) dopamine receptor; in assay [1]) were above 30 µM, above 10 µM and 0.082 µM, respectively.

On to `O=C1Nc2ccc(Cl)cc2C(c2ccccc2)=NC1O` (centres undefined) [OXAZEPAM], for which the AC50 in assay [6] is above 30 µM; at D(1A) dopamine receptor, above 10 µM; in assay [1] it was above 30 µM; at Histamine H1 receptor, above 30 µM.

Consider `Cc1ccc(=O)n(-c2ccccc2)c1` [PIRFENIDONE], for which the concentration at half-maximal activity (AC50) in [4] is above 10 µM; in assay [1], above 30 µM; in [5], above 30 µM; at Histamine H1 receptor it was above 30 µM; in assay [2], above 30 µM; in [3], above 30 µM.

In the case of `Cc1ccc2c(-c3ccccc3)nc(=O)n(C(C)C)c2c1` [PROQUAZONE], the AC50 on Androgen receptor is 15 µM; in assay [1] it was above 30 µM; on Histamine H1 receptor, above 30 µM; in assay [2], above 30 µM; in assay [3] it was above 30 µM.

For the compound `CN1CCN(c2c(F)cc3c(=O)c(C(=O)O)cn4c3c2SCC4)CC1` [RUFLOXACIN], the concentration at half-maximal activity (AC50) (in assay [1]; at Histamine H1 receptor; in assay [2]; in assay [3]) was above 30 µM in each case.

As for `CC(C)CC(N(C)C)C1(c2ccc(Cl)cc2)CCC1` (centres undefined) [SIBUTRAMINE], the half-maximal activity concentration (AC50) was above 30 µM in assay [6] and above 10 µM on D(1A) dopamine receptor.

On to `[H]/N=C(/N)N[C@H]1[C@H](O)[C@@H](O)[C@H](O[C@@H]2O[C@@H](C)[C@](O)(C=O)[C@H]2O[C@@H]2O[C@@H](CO)[C@H](O)[C@@H](O)[C@@H]2NC)[C@@H](N/C(N)=N\[H])[C@@H]1O` [STREPTOMYCIN], for which the AC50 in assay [6] is above 30 µM; at D(1A) dopamine receptor, above 10 µM; in assay [4], above 10 µM.

Regarding `CN1c2ccccc2C(NCCCCCCC(=O)O)c2ccc(Cl)cc2S1(=O)=O` (centres undefined) [TIANEPTINE], the AC50 (in assay [1]; at Histamine H1 receptor; in assay [2]; in assay [3]) was above 30 µM in each case.

As for `COc1cc2c(Nc3ccc(Br)cc3F)ncnc2cc1OCC1CCN(C)CC1` [VANDETANIB], the AC50 in assay [1], in [5], in assay [2] and in assay [3] was above 30 µM each time.
